According to the supplement of paper PMC11208160:

Experiment: recombinant UMI read abundance after kanamycin selection (control-corrected) (log10(CPM+1)); higher = more efficient recombination; extreme values may be limits of the assay; sequences stand for … in AGTGCAGAGAAAATCGGCCAGTTTTCTCTGCCTGCAGTCCGCATGCCGTGGGACCCCTTGGGTTCTAACCTGTTGCCTAGATTTATGCAGCGGACTGCCTTTCTCCCAAAGTGATAAACCGG…AGGTTGGTTTCACT; site = the 11-nt donor
In short: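 The measure is log10(CPM+1) for recombinant UMIs. These were PCR-amplified across the donor–target junction and sequenced after Escherichia coli carrying a donor and donor-binding-loop pair library and a target plasmid with T7-inducible IS621 bridge recombinase was plated on IPTG (0.07 mM) plus kanamycin or unselected. CPM were averaged over two replicates and scaled by control-derived factors.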
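Note: IS621 bridge recombinase in Escherichia coli cells against a fixed T5 target plasmid.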

| Sequence | recombinant UMI read abundance (log10) |
| --- | --- |
| GCGCAGCCATGGACCGGTTTTCCCGGTAATCCGTATTTGGG (site GCGTAGCCTCC) | 0.0296 |
| GCGCCCTCATGGACCGGTTTTCCCGGTAATCCGTATTTGAC (site GCGCCCTCTGT) | 2.76 |
| GCGCCGGCATGGACCGGTTTTCCCGGTAATCCGTATTTGTG (site GCGCCGGCTCA) | 0.015 |
| GCGCTCTCATGGACCGGTTTTCCCGGTAATCCGTATTTGCT (site GCGCTCTCTAG) | 2.75 |
| GCGGAGTCATGGACCGGTTTTCCCGGTAATCCGTATTTGTT (site GCGGAGTCTAA) | 3.15 |
| GCGTATGCATGGACCGGTTTTCCCGGTAATCCGTATTTGTA (site GCGTATGCTTA) | 2.99 |
| GCGTGACCATGGACCGGTTTTCCCGGTAATCCGTATTTGCA (site GCGTGACCTTG) | 0.00644 |
| GCGTGGTCATGGACCGGTTTTCCCGGTAATCCGTATTTGGC (site GCGTGGTCTGC) | 2.06 |
| GCGTTGACATGGACCGGTTTTCCCGGTAATCCGTATTTGAG (site GCGTTGACTCT) | 1.98 |
| GCGTTGACATGGACCGGTTTTCCCGGTAATCCGTATTTGCA (site GCGTTGACTTG) | 2.59 |
| GCTAATGCATGGACCGGTTTTCCCGGTAATCCGTATTTGCC (site GCTAATGCTGG) | 0 |
| GCTAATGCATGGACCGGTTTTCCCGGTAATCCGTATTTGCC (site GCTACTGCTGG) | 0 |
| GCTAATGCATGGACCGGTTTTCCCGGTAATCCGTATTTGCC (site GCTAGTGCTGG) | 0 |
| GCTAATGCATGGACCGGTTTTCCCGGTAATCCGTATTTGCC (site GCTATTGCTGG) | 0 |
| GCTACCCCATGGACCGGTTTTCCCGGTAATCCGTATTTGTG (site GCTACCCCTCA) | 0.013 |
| GCTACCGCATGGACCGGTTTTCCCGGTAATCCGTATTTGCA (site GCTACCGCTTG) | 2.13 |
| GCTACCTCATGGACCGGTTTTCCCGGTAATCCGTATTTGCG (site GCTACCTCTCG) | 1.22 |
| GCTACGGCATGGACCGGTTTTCCCGGTAATCCGTATTTGCC (site GCTACAGCTGG) | 0 |
| GCTACGGCATGGACCGGTTTTCCCGGTAATCCGTATTTGCC (site GCTACCGCTGG) | 0 |
| GCTACGGCATGGACCGGTTTTCCCGGTAATCCGTATTTGCC (site GCTACGGCTGG) | 0.761 |
| GCTACGGCATGGACCGGTTTTCCCGGTAATCCGTATTTGCC (site GCTACTGCTGG) | 0 |
| GCTACTACATGGACCGGTTTTCCCGGTAATCCGTATTTGCC (site GCTACTACTGG) | 0 |
| GCTACTACATGGACCGGTTTTCCCGGTAATCCGTATTTGCC (site GCTACTCCTGG) | 0 |
| GCTACTACATGGACCGGTTTTCCCGGTAATCCGTATTTGCC (site GCTACTGCTGG) | 0 |
| GCTACTACATGGACCGGTTTTCCCGGTAATCCGTATTTGCC (site GCTACTTCTGG) | 0 |

| Sequence | recombinant UMI read abundance (log10) |
| --- | --- |
| GCTACTGCATGGACCGGTTTTCCCGGTAATCCGTATTTGAC (site GCTACTGCTGA) | 0 |
| GCTACTGCATGGACCGGTTTTCCCGGTAATCCGTATTTGAC (site GCTACTGCTGC) | 0 |
| GCTACTGCATGGACCGGTTTTCCCGGTAATCCGTATTTGAC (site GCTACTGCTGG) | 0 |
| GCTACTGCATGGACCGGTTTTCCCGGTAATCCGTATTTGAC (site GCTACTGCTGT) | 2.07 |
| GCTACTTCATGGACCGGTTTTCCCGGTAATCCGTATTTGCC (site GCTACTACTGG) | 0 |
| GCTACTTCATGGACCGGTTTTCCCGGTAATCCGTATTTGCC (site GCTACTCCTGG) | 0 |
| GCTACTTCATGGACCGGTTTTCCCGGTAATCCGTATTTGCC (site GCTACTGCTGG) | 0 |
| GCTACTTCATGGACCGGTTTTCCCGGTAATCCGTATTTGCC (site GCTACTTCTGG) | 1.34 |
| GCTAGAGCATGGACCGGTTTTCCCGGTAATCCGTATTTGTA (site GCTAGAGCTTA) | 2.58 |
| GCTAGGGCATGGACCGGTTTTCCCGGTAATCCGTATTTGTT (site GCTAGGGCTAA) | 1.53 |
| GCTCGCCCATGGACCGGTTTTCCCGGTAATCCGTATTTGAT (site GCTAGCCCTAT) | 0.0115 |
| GCTCGCCCATGGACCGGTTTTCCCGGTAATCCGTATTTGAT (site GCTCGCCCTAT) | 0.567 |
| GCTCGCCCATGGACCGGTTTTCCCGGTAATCCGTATTTGAT (site GCTGGCCCTAT) | 0.019 |
| GCTCGCCCATGGACCGGTTTTCCCGGTAATCCGTATTTGAT (site GCTTGCCCTAT) | 0.00792 |
| GCTCGTACATGGACCGGTTTTCCCGGTAATCCGTATTTGAT (site GCTCGTACTAT) | 1.1 |
| GCTCTGCCATGGACCGGTTTTCCCGGTAATCCGTATTTGCG (site GCTCTGCCTCG) | 0.0154 |
| GCTGCAGCATGGACCGGTTTTCCCGGTAATCCGTATTTGTC (site GCTGCAGCTGA) | 2.59 |
| GCTGGAACATGGACCGGTTTTCCCGGTAATCCGTATTTGAC (site GCTGGAACTGT) | 1.62 |
| GCTGTGTCATGGACCGGTTTTCCCGGTAATCCGTATTTGGA (site GCTGTGTCTTC) | 1.46 |
| GCTTAGACATGGACCGGTTTTCCCGGTAATCCGTATTTGGC (site GCTTAGACTGC) | 2.37 |
| GCTTCCCCATGGACCGGTTTTCCCGGTAATCCGTATTTGAT (site GCTTACCCTAT) | 0.0108 |
| GCTTCCCCATGGACCGGTTTTCCCGGTAATCCGTATTTGAT (site GCTTCCCCTAT) | 0.569 |
| GCTTCCCCATGGACCGGTTTTCCCGGTAATCCGTATTTGAT (site GCTTGCCCTAT) | 0.00758 |
| GCTTCCCCATGGACCGGTTTTCCCGGTAATCCGTATTTGAT (site GCTTTCCCTAT) | 0.028 |
| GCTTCCCCATGGACCGGTTTTCCCGGTAATCCGTATTTGCA (site GCTTCCCCTTG) | 1.15 |

| Sequence | recombinant UMI read abundance (log10) |
| --- | --- |
| GCTTCTGCATGGACCGGTTTTCCCGGTAATCCGTATTTGCC (site GCTACTGCTGG) | 0.647 |
| GCTTCTGCATGGACCGGTTTTCCCGGTAATCCGTATTTGCC (site GCTCCTGCTGG) | 1.82 |
| GCTTCTGCATGGACCGGTTTTCCCGGTAATCCGTATTTGCC (site GCTGCTGCTGG) | 0 |
| GCTTCTGCATGGACCGGTTTTCCCGGTAATCCGTATTTGCC (site GCTTCTGCTGG) | 1.86 |
| GCTTGCCCATGGACCGGTTTTCCCGGTAATCCGTATTTGGT (site GCTTGCCCTAA) | 0.00835 |
| GCTTGCCCATGGACCGGTTTTCCCGGTAATCCGTATTTGGT (site GCTTGCCCTAC) | 0.017 |
| GCTTGCCCATGGACCGGTTTTCCCGGTAATCCGTATTTGGT (site GCTTGCCCTAG) | 0 |
| GCTTGCCCATGGACCGGTTTTCCCGGTAATCCGTATTTGGT (site GCTTGCCCTAT) | 0 |
| GCTTTACCATGGACCGGTTTTCCCGGTAATCCGTATTTGTT (site GCTTTACCTAA) | 0.0408 |
| GCTTTAGCATGGACCGGTTTTCCCGGTAATCCGTATTTGTT (site GCTTTAGCTAA) | 0.00318 |
| GGAAATCCATGGACCGGTTTTCCCGGTAATCCGTATTTGAA (site GGAAATCCTTT) | 0.994 |
| GGAAATCCATGGACCGGTTTTCCCGGTAATCCGTATTTGAA (site GGCAATCCTTT) | 0 |
| GGAAATCCATGGACCGGTTTTCCCGGTAATCCGTATTTGAA (site GGGAATCCTTT) | 0 |
| GGAAATCCATGGACCGGTTTTCCCGGTAATCCGTATTTGAA (site GGTAATCCTTT) | 0 |
| GGAAATCCATGGACCGGTTTTCCCGGTAATCCGTATTTGGT (site GGAAATCCTAC) | 0 |
| GGAACGGCATGGACCGGTTTTCCCGGTAATCCGTATTTGGA (site GGAACGGCTTC) | 1.09 |
| GGAAGCTCATGGACCGGTTTTCCCGGTAATCCGTATTTGTT (site GGAAGCTCTAA) | 2.26 |
| GGAATGGCATGGACCGGTTTTCCCGGTAATCCGTATTTGGT (site GGAATGGCTAC) | 1.5 |
| GGAATGGCATGGACCGGTTTTCCCGGTAATCCGTATTTGGT (site GGACTGGCTAC) | 0.00772 |
| GGAATGGCATGGACCGGTTTTCCCGGTAATCCGTATTTGGT (site GGAGTGGCTAC) | 0.00394 |
| GGAATGGCATGGACCGGTTTTCCCGGTAATCCGTATTTGGT (site GGATTGGCTAC) | 0.00922 |
| GGAATTGCATGGACCGGTTTTCCCGGTAATCCGTATTTGCC (site GGAATTGCTGG) | 0 |
| GGACACGCATGGACCGGTTTTCCCGGTAATCCGTATTTGCT (site GGACACGCTAG) | 2.59 |
| GGACAGACATGGACCGGTTTTCCCGGTAATCCGTATTTGCC (site GGAAAGACTGG) | 0 |
| GGACAGACATGGACCGGTTTTCCCGGTAATCCGTATTTGCC (site GGACAGACTGG) | 2.42 |
